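Interpolation was linear, between the two tested concentrations surrounding the appropriate level; five concentrations were tested over 48 hours in 96-well plates. At the GI50, growth is halved. TGI marks complete inhibition of growth.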
Columns and labels:
Assay in all cases: DTP human tumour cell line panel, 48 h
MALME-3M melanoma = tested on: MALME-3M melanoma
M14 melanoma = tested on: M14 melanoma
OVCAR-4 ovarian = tested on: OVCAR-4 ovarian
MDA-MB-435 = tested on: MDA-MB-435
T-47D breast = tested on: T-47D breast
HOP-62 NSCLC = tested on: HOP-62 NSCLC
PC-3 prostate = tested on: PC-3 prostate
U251 CNS = tested on: U251 CNS
SK-MEL-28 melanoma = tested on: SK-MEL-28 melanoma
NCI-H226 lung = tested on: NCI-H226 lung
DU-145 prostate = tested on: DU-145 prostate
SNB-75 CNS = tested on: SNB-75 CNS
SNB-19 CNS = tested on: SNB-19 CNS
CCRF-CEM leukemia = tested on: CCRF-CEM leukemia
OVCAR-8 ovarian = tested on: OVCAR-8 ovarian
BT-549 breast = tested on: BT-549 breast
SK-OV-3 ovarian = tested on: SK-OV-3 ovarian
SR leukemia = tested on: SR leukemia
COLO 205 colon = tested on: COLO 205 colon
RPMI-8226 leukemia = tested on: RPMI-8226 leukemia
SN12C renal = tested on: SN12C renal
SF-539 CNS = tested on: SF-539 CNS
SW-620 colon = tested on: SW-620 colon
OVCAR-5 ovarian = tested on: OVCAR-5 ovarian
A498 renal = tested on: A498 renal
NCI-H522 lung = tested on: NCI-H522 lung
A549 NSCLC = tested on: A549 NSCLC
ACHN renal = tested on: ACHN renal
MCF7 breast = tested on: MCF7 breast
SK-MEL-5 melanoma = tested on: SK-MEL-5 melanoma
NCI-H460 lung = tested on: NCI-H460 lung
CAKI-1 renal = tested on: CAKI-1 renal
OVCAR-3 ovarian = tested on: OVCAR-3 ovarian
IGROV1 ovarian = tested on: IGROV1 ovarian
UACC-62 melanoma = tested on: UACC-62 melanoma
UO-31 renal = tested on: UO-31 renal
NCI/ADR-RES ovarian = tested on: NCI/ADR-RES ovarian
SK-MEL-2 melanoma = tested on: SK-MEL-2 melanoma
HT29 colon = tested on: HT29 colon
786-0 renal = tested on: 786-0 renal
SF-295 CNS = tested on: SF-295 CNS
TK-10 renal = tested on: TK-10 renal
HCC-2998 colon = tested on: HCC-2998 colon
MDA-MB-231 breast = tested on: MDA-MB-231 breast
HCT-116 colon = tested on: HCT-116 colon
MOLT-4 leukemia = tested on: MOLT-4 leukemia
LOX IMVI melanoma = tested on: LOX IMVI melanoma
UACC-257 melanoma = tested on: UACC-257 melanoma
HOP-92 NSCLC = tested on: HOP-92 NSCLC
HCT-15 colon = tested on: HCT-15 colon
HL-60(TB) leukemia = tested on: HL-60(TB) leukemia
NCI-H23 lung = tested on: NCI-H23 lung
EKVX NSCLC = tested on: EKVX NSCLC
K-562 leukemia = tested on: K-562 leukemia
SF-268 CNS = tested on: SF-268 CNS
KM12 colon = tested on: KM12 colon
HS 578T breast = tested on: HS 578T breast

## CN1CCN(c2ccc(Nc3nc(NCCCNS(=O)(=O)c4ccccc4)c4sccc4n3)cc2)CC1
MALME-3M melanoma
  GI50: 13.3 µM
  TGI: 26.2 µM
M14 melanoma
  GI50: 3.9 µM
  TGI: 14.3 µM
OVCAR-4 ovarian
  GI50: 13.4 µM
  TGI: 48.6 µM
MDA-MB-435
  GI50: 14.2 µM
  TGI: 27.2 µM
T-47D breast
  GI50: 18.3 µM
  TGI: 46.5 µM
HOP-62 NSCLC
  GI50: 17 µM
  TGI: 33.2 µM
PC-3 prostate
  GI50: 19.9 µM
  TGI: 77.4 µM
U251 CNS
  GI50: 7.64 µM
  TGI: 52.4 µM
SK-MEL-28 melanoma
  GI50: 13.5 µM
  TGI: 26.3 µM
NCI-H226 lung
  GI50: 13.5 µM
  TGI: 26.8 µM
DU-145 prostate
  GI50: 15.4 µM
  TGI: 28.7 µM
SNB-75 CNS
  GI50: 10.3 µM
  TGI: 22 µM
SNB-19 CNS
  GI50: 25.6 µM
  TGI: 67.7 µM
CCRF-CEM leukemia
  GI50: 30.2 µM
  TGI: > 100 µM
OVCAR-8 ovarian
  GI50: 15.5 µM
  TGI: 48.5 µM
BT-549 breast
  GI50: 17.1 µM
  TGI: 37.4 µM
SK-OV-3 ovarian
  GI50: 29.6 µM
  TGI: 81.3 µM
SR leukemia
  GI50: 2830 nM
  TGI: > 100 µM
COLO 205 colon
  GI50: 15.5 µM
  TGI: 31.4 µM
RPMI-8226 leukemia
  GI50: 7.3 µM
  TGI: 55.4 µM
SN12C renal
  GI50: 14.8 µM
  TGI: 31.1 µM
SF-539 CNS
  GI50: 11.8 µM
  TGI: 24 µM
SW-620 colon
  GI50: 12.4 µM
  TGI: 27.6 µM
OVCAR-5 ovarian
  GI50: 16.6 µM
  TGI: 44.4 µM
A498 renal
  GI50: 21.9 µM
  TGI: 41.3 µM
NCI-H522 lung
  GI50: 14.6 µM
  TGI: 30.3 µM
A549 NSCLC
  GI50: 19.3 µM
  TGI: 48.8 µM
ACHN renal
  GI50: 15.2 µM
  TGI: 28.5 µM
MCF7 breast
  GI50: 9.12 µM
  TGI: 21.5 µM
SK-MEL-5 melanoma
  GI50: 16.6 µM
  TGI: 30.6 µM
NCI-H460 lung
  GI50: 16.4 µM
  TGI: 32.9 µM
CAKI-1 renal
  GI50: 16.4 µM
  TGI: 30 µM
OVCAR-3 ovarian
  GI50: 21.1 µM
  TGI: 55.6 µM
IGROV1 ovarian
  GI50: 13.3 µM
  TGI: 27.3 µM
UACC-62 melanoma
  GI50: 12.9 µM
  TGI: 25.7 µM
UO-31 renal
  GI50: 12.5 µM
  TGI: 25.5 µM
NCI/ADR-RES ovarian
  GI50: 21.2 µM
  TGI: 54.8 µM
SK-MEL-2 melanoma
  GI50: 17.5 µM
  TGI: 32.3 µM
HT29 colon
  GI50: 5.79 µM
  TGI: 33.2 µM
786-0 renal
  GI50: 17.8 µM
  TGI: 43.2 µM
SF-295 CNS
  GI50: 16 µM
  TGI: 30.2 µM
TK-10 renal
  GI50: 23.7 µM
  TGI: 48.6 µM
HCC-2998 colon
  GI50: 17.5 µM
  TGI: 35.6 µM
MDA-MB-231 breast
  GI50: 12.8 µM
  TGI: 30 µM
HCT-116 colon
  GI50: 7.46 µM
  TGI: > 100 µM
MOLT-4 leukemia
  GI50: 5.46 µM
  TGI: 46.6 µM
LOX IMVI melanoma
  GI50: 5.9 µM
  TGI: 20.2 µM
UACC-257 melanoma
  GI50: 16.2 µM
  TGI: 32.8 µM
HOP-92 NSCLC
  GI50: 12.3 µM
  TGI: 58.6 µM
HCT-15 colon
  GI50: 3.93 µM
  TGI: 18.8 µM
HL-60(TB) leukemia
  GI50: 14.9 µM
  TGI: 53.6 µM
NCI-H23 lung
  GI50: 15.8 µM
  TGI: 31.6 µM
EKVX NSCLC
  GI50: 23.5 µM
  TGI: 64 µM
K-562 leukemia
  GI50: 3.18 µM
  TGI: > 100 µM
SF-268 CNS
  GI50: 15.3 µM
  TGI: 63.1 µM
KM12 colon
  GI50: 20.4 µM
  TGI: 65.7 µM
HS 578T breast
  GI50: 13.5 µM
  TGI: 38.5 µM

Source: PubChem BioAssay (NCI)
